Earlier results on 43 compounds are cited in patent US11608532B2, “Precision medicine for treating and preventing suicidality” (Indiana University Research and Technology Corporation, priority 2017, dated 2023).

For series [1], the system named is top male bipolar biomarkers for suicidality. As to conditions: for Drugs that Modulate the Biomarker in Opposite Direction to Suicide: (I) in suicidality, male bipolars.
Series [2] deals with individual top biomarkers for suicidality. The note with it: for TNF modulated by drug in opposite direction to suicide: direction of change in suicidality (I) DE/1, (I) AP/1.
The mark [3] stands for this setting: A. Top Universal Biomarkers, direction of change in suicidality (D), AP/1.
Where [4] appears, read: biomarker HTR2A (5-hydroxytryptamine (serotonin) receptor 2A, G protein-coupled).
The mark [5] stands for this setting: C. Top Biomarkers in Females, direction of change in suicidality I, DE/2.
Where [6] appears, read: E. Top Biomarkers in Depression, direction of change in suicidality (I), DE/1.
Where [7] appears, read: G. Top Biomarkers in Males with Depression, direction of change in suicidality (D), AP/2.
Setting [8] is: A. Top Universal Biomarkers, direction of change in suicidality (I), DE/2.
Setting [9] is: D. Top Biomarkers in Bipolar Disorder, direction of change in suicidality (I), DE/2.
Setting [10] is: F. Top Biomarkers in Males with Bipolar Disorder, direction of change in suicidality (I), DE/2.
The mark [11] stands for this setting: biomarker BCL2 (B-cell CLL/lymphoma 2).
Setting [12] is: B. Top Biomarkers in Males, direction of change in suicidality I, DE/2.
[13] abbreviates: D. Top Biomarkers in Bipolar Disorder, direction of change in suicidality (D), DE/1.
Setting [14] is: D. Top Biomarkers in Bipolar Disorder.

Where two headings read alike, the source gives them in different places.

Consider `CCO` [Alcohol], for which the “Drugs that Modulate the Biomarker in Opposite Direction to Suicide (direction of change by drug)” value in series [1] was “(D) and (I)”.

`O=C1CCc2ccc(OCCCCN3CCN(c4cccc(Cl)c4Cl)CC3)cc2N1` [Aripiprazole]: in series [2] (setting [3]), the “IFNG modulated by drug in opposite direction to suicide” value is recorded as “Aripiprazole”. Moreover, in series [2] (setting [4]), the “Step 6 Drugs that Modulate the Biomarker in Opposite Direction to Suicide” value (from here on “Step 6 Drugs that Modulate the Biomarker”) was “Aripiprazole”.

As to `CNCCC(Oc1ccc(C(F)(F)F)cc1)c1ccccc1` (stereo not drawn) [Fluoxetine], in series [2] (setting [5]), the “BDNF modulated by drug in opposite direction to suicide” value (shortened to “BDNF modulated by drug”) is “Fluoxetine”. Besides, the “ACP1 modulated by drug in opposite direction to suicide” value in series [2] (E. Top Biomarkers in Depression, direction of change in suicidality (D), AP/1) is “Fluoxetine”. Moreover, in series [2] (setting [6]), the “BDNF modulated by drug” value is on record as “Fluoxetine” and the “JUN modulated by drug in opposite direction to suicide” value was “Fluoxetine”. For the same compound, in series [2] (setting [7]), the “NTRK3 modulated by drug in opposite direction to suicide” value is on record as “Fluoxetine”.

Take `COc1cc(C(C)=O)ccc1OCCCN1CCC(c2noc3cc(F)ccc23)CC1` [Iloperidone]: the “HTR2A modulated by drug in opposite direction to suicide” value (“HTR2A modulated by drug” below) in series [2] (setting [8]), in series [2] (setting [5]), in series [2] (setting [9]) and in series [2] (setting [10]) was “Iloperidone,” each time.

For `C/C=C(/C)C(=O)O[C@H]1C(C)=C[C@]23C(=O)[C@@H](C=C(CO)[C@@H](O)[C@]12O)[C@H]1[C@@H](C[C@H]3C)C1(C)C` [Ingenol mebutate], the “Drugs that modulate the biomarker PRKCB” value in series [2] (biomarker PRKCB (protein kinase C, beta), Table 20 CFE drug-evidence) is “Ingenol mebutate”. For the same compound, in series [2] (biomarker PRKCI (protein kinase C, iota)), the “Step 6 Drugs that Modulate the Biomarker” value is listed as “Ingenol”.

Consider `CN[C@@H](C)Cc1ccccc1` [Methamphetamine], for which the “Drugs that Modulate the Biomarker in Opposite Direction to Suicide” value in series [1] (CRYAB, 209283_at) was “Methamphetamine”.

Turning to `CC#C[C@]1(O)CC[C@H]2[C@@H]3CCC4=CC(=O)CCC4=C3[C@@H](c3ccc(N(C)C)cc3)C[C@@]21C` [Mifepristone], the “BDNF modulated by drug” value in series [2] (setting [5]) and in series [2] (setting [6]) was “Mifepristone” each time.

With `CN1CCN2c3ncccc3Cc3ccccc3C2C1` (stereo not drawn) [Mirtazapine], in series [2] (setting [4]), the “Step 6 Drugs that Modulate the Biomarker” value is “Mirtazapine”.

As to `CCc1nn(CCCN2CCN(c3cccc(Cl)c3)CC2)c(=O)n1CCOc1ccccc1` [Nefazodone], the “Step 6 Drugs that Modulate the Biomarker” value in series [2] (setting [4]) was “Nefazodone”.

As for `CC(=O)O[C@H]1C(=O)[C@@]2(C)[C@H]([C@H](OC(=O)c3ccccc3)[C@]3(O)C[C@H](OC(=O)[C@H](O)[C@@H](NC(=O)c4ccccc4)c4ccccc4)C(C)=C1C3(C)C)[C@]1(OC(C)=O)CO[C@@H]1C[C@@H]2O` [Paclitaxel], the “Step 6 Drugs that Modulate the Biomarker” value in series [2] (setting [11]) is “Paclitaxel”.

With `Fc1ccc([C@@H]2CCNC[C@H]2COc2ccc3c(c2)OCO3)cc1` [Paroxetine], the “CCL28 modulated by drug in opposite direction to suicide” value in series [2] (A. Top Universal Biomarkers, direction of change in suicidality (D), AP/4) was “Paroxetine”.

In the case of `OCCOCCN1CCN(C2=Nc3ccccc3Sc3ccccc32)CC1` [Quetiapine], in series [2] (setting [3]), the “IFNG modulated by drug in opposite direction to suicide” value is recorded as “Quetiapine,”. Further, the “Step 6 Drugs that Modulate the Biomarker” value in series [2] (setting [4]) is on record as “Quetiapine”.

For the compound `C[C@H]1Oc2c(cccc2N2CCN(CCCc3c[nH]c4ccc(F)cc34)CC2)NC1=O` [SLV-314], the “SLC6A4 modulated by drug in opposite direction to suicide” value in series [2] (setting [12]) and in series [2] (setting [13]) was “SLV-314” in each case.

In the case of `CN[C@H]1CC[C@@H](c2ccc(Cl)c(Cl)c2)c2ccccc21` [Sertraline], the “TNF modulated by drug in opposite direction to suicide” value (“TNF modulated by drug” for short) in series [2] (setting [14]) is “Sertraline”.

As to `COc1ccc(C(CN(C)C)C2(O)CCCCC2)cc1` (stereo not drawn) [Venlafaxine], the “TNF modulated by drug” value in series [2] (setting [14]) is listed as “Venlafaxine”.

Regarding `O=C1Cc2cc(CCN3CCN(c4nsc5ccccc45)CC3)c(Cl)cc2N1` [Ziprasidone], in series [2] (setting [4]), the “Step 6 Drugs that Modulate the Biomarker” value was “Ziprasidone”.

In the case of `CN(C)CCC=C1c2ccccc2CCc2ccccc21` [amitriptyline], the “Drugs that Modulate the Biomarker in Opposite Direction to Suicide” value in series [1] (HTR2A, 244130_at) is listed as “amitriptyline”.

For the compound `CN1CCc2cccc3c2[C@H]1Cc1ccc(O)c(O)c1-3` [apomorphine], in series [1] (HTR2A, 244130_at), the “Drugs that Modulate the Biomarker in Opposite Direction to Suicide” value is listed as “apomorphine”.

Take `O=C1CCc2ccc(OCCCCN3CCN(c4cccc(Cl)c4Cl)CC3)cc2N1` [aripiprazole]: the “Drugs that Modulate the Biomarker in Opposite Direction to Suicide” value in series [1] (HTR2A, 244130_at) is on record as “aripiprazole”.

As to `CN1CC2c3ccccc3Oc3ccc(Cl)cc3C2C1` (stereo not drawn) [asenapine], the “HTR2A modulated by drug” value in series [2] (setting [8]), in series [2] (setting [5]), in series [2] (setting [9]) and in series [2] (setting [10]) was “asenapine,” throughout.

Take `CN1CCC(=C2c3ccccc3CCc3cccnc32)CC1` [azatadine]: in series [1] (HTR2A, 244130_at), the “Drugs that Modulate the Biomarker in Opposite Direction to Suicide” value is reported as “azatadine”.

On to `Cc1ccc(C23CNCC2C3)cc1` (stereo not drawn) [bicifadine], for which the “SLC6A4 modulated by drug in opposite direction to suicide” value in series [2] (setting [12]) and in series [2] (setting [13]) was “bicifadine,” throughout.

Regarding `CN(C)C(=O)N[C@H]1CC[C@H](CCN2CCN(c3cccc(Cl)c3Cl)CC2)CC1` [cariprazine], the “HTR2A modulated by drug” value in series [2] (setting [8]), in series [2] (setting [5]), in series [2] (setting [9]) and in series [2] (setting [10]) was “cariprazine,” each time.

For the compound `CN(C)CCCN1c2ccccc2CCc2ccc(Cl)cc21` [clomipramine], in series [1] (HTR2A, 244130_at), the “Drugs that Modulate the Biomarker in Opposite Direction to Suicide” value is listed as “clomipramine”.

In the case of `CNCCCN1c2ccccc2CCc2ccccc21` [desipramine], the “Drugs that Modulate the Biomarker in Opposite Direction to Suicide” value in series [1] (HTR2A, 244130_at) was “desipramine”.

Consider `CN1C[C@H](C(=O)N[C@]2(C)O[C@@]3(O)[C@@H]4CCCN4C(=O)[C@H](Cc4ccccc4)N3C2=O)C[C@@H]2c3cccc4[nH]cc(c34)C[C@H]21` [dihydroergotamine], for which the “Drugs that Modulate the Biomarker in Opposite Direction to Suicide” value in series [1] (HTR2A, 244130_at) is “dihydroergotamine”.

`CN(C)CCC=C1c2ccccc2COc2ccccc21` [doxepin]: the “Drugs that Modulate the Biomarker in Opposite Direction to Suicide” value in series [1] (HTR2A, 244130_at) was “doxepin”.

On to `CN1CCN(c2ccc(C(=O)Nc3n[nH]c4ccc(Cc5cc(F)cc(F)c5)cc34)c(NC3CCOCC3)c2)CC1` [entrectinib], for which the “NTRK3 modulated by drug in opposite direction to suicide” value in series [2] (setting [5]) is recorded as “entrectinib,”; in series [2] (E. Top Biomarkers in Depression, direction of change in suicidality (I) AP/2, (I) DE/1), “entrectinib,”; in series [2] (setting [7]), “entrectinib,”.

In the case of `CN1C[C@H](C(=O)N[C@]2(C)O[C@@]3(O)[C@@H]4CCCN4C(=O)[C@H](Cc4ccccc4)N3C2=O)C=C2c3cccc4[nH]cc(c34)C[C@H]21` [ergotamine], the “Drugs that Modulate the Biomarker in Opposite Direction to Suicide” value in series [1] (HTR2A, 244130_at) was “ergotamine”.

For `O=C(CCCN1CCC(O)(c2ccc(Cl)cc2)CC1)c1ccc(F)cc1` [haloperidol, reference compound], the “BDNF modulated by drug” value in series [2] (setting [5]) and in series [2] (setting [6]) was “Haloperidol” in each case. Also, the “Drugs that modulate the biomarker AGA” value in series [2] (biomarker AGA (aspartyl glucosaminidase), Table 20 CFE drug-evidence) is reported as “Haloperidol”. Moreover, the “Step 6 Drugs that Modulate the Biomarker” value in series [2] (biomarker AGA (aspartylglucosaminidase)) and in series [2] (biomarker AKAP13 (A kinase (PRKA) anchor protein 13)) was “Haloperidol” throughout. Besides, in series [2] (biomarker RIMS3 (regulating synaptic membrane exocytosis 3), Table 20 CFE drug-evidence), the “Drugs that modulate the biomarker RIMS3” value was “Haloperidol”.

With `CCN(CC)C(=O)N[C@H]1C=C2c3cccc4[nH]cc(c34)C[C@H]2N(C)C1` [lisuride], in series [1] (HTR2A, 244130_at), the “Drugs that Modulate the Biomarker in Opposite Direction to Suicide” value was “lisuride”.

`CN1CCCCC1CCN1c2ccccc2Sc2ccc([S+](C)[O-])cc21` (stereo not drawn) [mesoridazine]: in series [1] (HTR2A, 244130_at), the “Drugs that Modulate the Biomarker in Opposite Direction to Suicide” value was “mesoridazine”.

As to `CC[C@@H](CO)NC(=O)[C@@H]1C=C2c3cccc4c3c(cn4C)C[C@H]2N(C)C1` [methysergide], the “Drugs that Modulate the Biomarker in Opposite Direction to Suicide” value in series [1] (HTR2A, 244130_at) is given as “methysergide”.

Consider `OCCN1CCN(CCCN2c3ccccc3C=Cc3ccccc32)CC1` [opipramol], for which the “HTR2A modulated by drug” value in series [2] (setting [8]), in series [2] (setting [5]), in series [2] (setting [9]) and in series [2] (setting [10]) was “opipramol,” each time.

`O=C1CCC(N2C(=O)c3ccccc3C2=O)C(=O)N1` (stereo not drawn) [thalidomide]: the “TNF modulated by drug” value in series [2] (setting [14]) is recorded as “thalidomide”.

As to `CN1CCN(CCCN2c3ccccc3Sc3ccc(S(=O)(=O)N(C)C)cc32)CC1` [thioproperazine], the “HTR2A modulated by drug” value in series [2] (setting [8]), in series [2] (setting [5]), in series [2] (setting [9]) and in series [2] (setting [10]) was “thioproperazine,” each time.

As for Oblimersen, the “Step 6 Drugs that Modulate the Biomarker” value in series [2] (setting [11]) is recorded as “Oblimersen”.

Recombinant-methionyl human leptin: the “Step 6 Drugs that Modulate the Biomarker” value in series [2] (biomarker LEPR (leptin receptor)) is “Recombinant-”.

Tocilizumab: the “Step 6 Drugs that Modulate the Biomarker” value in series [2] (biomarker IL6 (interleukin 6)) is recorded as “Tocilizumab”.

With etanercept, in series [2] (setting [14]), the “TNF modulated by drug” value was “, etanercept,”.

For golimumab, in series [2] (setting [14]), the “TNF modulated by drug” value was “golimumab,”.

Consider infliximab, for which the “TNF modulated by drug” value in series [2] (setting [14]) is listed as “infliximab,”.

Take tocilizumab: in series [2] (B. Top Biomarkers in Males, direction of change in suicidality I, AP/2), the “IL6 modulated by drug in opposite direction to suicide” value is given as “tocilizumab,”.
